{"source": "patent US20220228120A1", "about": "“Cardiomyocyte Compositions and Use Thereof” (UNIVERSITY HEALTH NETWORK, priority 2019, published 2022)", "format_in_all_cases": "cell-based, human", "key": {"mature compact CMs [1]": {"test_system": "mature compact CMs", "test": "In vitro pathological stimuli model: ECAR by Seahorse XF glycolysis assay", "method": "For the Seahorse™ XF FAO assay, a few EBs were plated onto an XFe24 cell culture microplate coated by Matrigel™ 48 hours prior to the assay. 24 hours prior to the assay, replace the culture medium with substrate-limited medium containing 0.5 mM glucose (Sigma), 1.0 mM Glutamine (Life technology), 0.5 mM Carnitine (Sigma), and 1% Fetal Bovine Serum (Wisent) in DMEM no glucose medium (ThermoFisher). 45 mins prior to the assay, wash the cells two times with FAO assay medium, add 375 μl/well FAO assay medium to the cells and incubate for 45 mins at 37 C. Load the assay cartridge with Seahorse™ XF Cell Mito Stress Test compounds (2 μM oligomycin, 5 μM FCCP, 0.5 μM rotenone/0.5 μM antimycin A). […] After the measurement of OCR, EBs are dissociated and counted the cell number in each well. […] After the measurement of ECAR, EBs are dissociated and counted the cell number in each well. […]\nTo induce a pathological response in the mature CMs, we cultured them in the presence of isoproterenol (100 μM), a small molecule adrenergic agonist in a hypoxic (5% O2) environment, in low glucose containing medium with Palmitate (200 μM) for 6 days (FIG. 8B). […] To assess the glycolytic flux in these cells, we measured the extracellular acidification rate (ECAR) as an index of glycolytic activity using the Seahorse™ XF assay (Mookerjee and Brand. J Vis Exp. (2015) e53464)."}, "[2]": {"test_system": "hPSC-derived compact cardiomyocytes", "test": "Seahorse XF FAO Cell Mito stress test (OCR), compact cardiomyocytes", "conditions": "ETO 40 μM, mature cells"}, "hPSC-derived atrial CMs": {"test_system": "hPSC-derived atrial CMs", "test": "Seahorse FAO Cell Mito stress test (OCR), atrial CMs", "conditions": "ETO 40 μM"}, "mature compact CMs [3]": {"test_system": "mature compact CMs", "test": "In vitro pathological stimuli model (hypoxia+ISO): RT-qPCR", "method": "Total RNA from samples was isolated using RNAqueous™-micro Kit including RNase-free DNase treatment (invitrogen). RNA from dissected ventricular and atrial tissue of human fetal hearts was isolated using the TRIzol® method (ThermoFisher) and treated with DNase (Ambion®). Isolated RNA was reverse transcribed into cDNA using oligo (dT) primers and random hexamers and iScript™ Reverse Transcriptase (ThermoFisher). QRT-PCR was performed on an EP Real-Plex MasterCycler® (Eppendorf®) using QuantiFast® SYBR Green PCR kit (QIAGEN). The copy number of each gene relative to the house keeping gene TBP.\n(§1) To induce a pathological response in the mature CMs, we cultured them in the presence of isoproterenol (100 μM), a small molecule adrenergic agonist in a hypoxic (5% O2) environment, in low glucose containing medium with Palmitate (200 μM) for 6 days (FIG. 8B). Immature control cells were treated under the same conditions. […] (FIG. 8C). To assess the glycolytic flux in these cells, we measured the extracellular acidification rate (ECAR) as an index of glycolytic activity using the Seahorse™ XF assay (Mookerjee and Brand. J Vis Exp. (2015) e53464)."}, "mature and immature CMs [4]": {"test_system": "mature and immature CMs", "test": "In vitro pathological stimuli model: Nile Red lipid accumulation", "conditions": "treated populations", "method": "To quantify the lipid droplets, Cayman's Lipid Droplets Fluorescence Assay Kit (Cayman) was used. After the EBs were dissociated as described above, cells were fixed by Fixative Solution for 10 mins at room temperature. Cells were washed with Assay Buffer and stained with the Nile Red Staining Solution at room temperature for 15 mins. Cells were washed with Assay Buffer and analyzed with filter sets to detect FITC using the LSR II Flow cytometer (BD PharMingen™). Data were analyzed using FlowJo™ software (Tree Star).\nas §1"}, "mature and immature CMs [5]": {"test_system": "mature and immature CMs", "test": "In vitro pathological stimuli model: CASP9 expression and Annexin V apoptosis assay", "method": "After the culture in the pathological condition for 6 days, the EBs were dissociated as described above. To detect the apoptosis following the pathological stimuli, TACS® Annexin V assay (TREVIGEN) was performed by flowcytometry. Cells were washed with PBS and stained with Annexin V-FITC for 15 mins at room temperature. Add Binding Buffer to samples and process by flowcytometry. Stained cells were analyzed using the LSR II Flow cytometer (BD). Data were analyzed using FlowJo™ software (Tree Star).\nas §1"}}, "data": [{"smiles": "O=CC[C@@H](O)[C@H](O)[C@H](O)CO", "note": "[2-DG, 2-deoxy-glucose]", "values": [{"measurement": "ECAR following injection", "setting": "mature compact CMs [1]; mature CMs exposed to the pathological stimuli, 2-DG 100 mM", "result": "rapid decrease"}]}, {"smiles": "CCOC(=O)[C@@]1(CCCCCCOc2ccc(Cl)cc2)CO1", "note": "[ETO, etomoxir]", "values": [{"measurement": "mitochondrial oxidation", "setting": "[2]", "result": "blocked"}, {"measurement": "mitochondrial oxidation, atrial CMs", "setting": "hPSC-derived atrial CMs", "result": "blocked"}]}, {"smiles": "CC(C)NCC(O)c1ccc(O)c(O)c1", "note": "(stereo not shown) [isoproterenol]", "values": [{"measurement": "expression of glycolysis-related genes GLUT1, GAPDH and LDHA", "setting": "mature compact CMs [3]; isoproterenol 100 μM, 5% O2, low glucose with Palmitate 200 μM, 6 days, mature CMs", "result": "upregulation"}, {"measurement": "expression of CD36, GPD1 and PLIN2", "setting": "mature compact CMs [3]; mature CMs under the pathological stimuli", "result": "upregulated"}, {"measurement": "expression of hormone sensitive lipase HSL", "setting": "mature compact CMs [3]; treated mature CMs", "result": "downregulated"}, {"measurement": "glycolytic activity (ECAR)", "setting": "mature compact CMs [1]; isoproterenol 100 μM, 5% O2, 6 days, mature CMs", "result": "significantly upregulated"}, {"measurement": "lipid accumulation (Nile red)", "setting": "mature and immature CMs [4]", "result": "increases"}, {"measurement": "apoptosis (CASP9, Annexin V^+ cells)", "setting": "mature and immature CMs [5]; immature population", "result": "not in the immature population"}, {"measurement": "apoptosis (CASP9, Annexin V^+ cells)", "setting": "mature and immature CMs [5]; mature population", "result": "induced apoptosis"}]}]}
